Test results as given in the supplement of paper PMC12463676, “Small-molecule dissolution of stress granules by redox modulation benefits ALS models” (Nature Chemical Biology, 2025).

compound: O=[As]([O-])(O)O.[K+] [potassium arsenate]; assay: thermal stability z-score vs DMSO; higher = more thermally stabilized by treatment; conditions: HeLa; arsenate concentration 1 mM
Protocol: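 Cellular thermal proteome profiling in HeLa cells treated with 1 mM arsenate for 1 h (DMSO pretreatment), heated to ten temperatures (37-66.3 °C). Soluble protein was quantified by TMT mass spectrometry relative to DMSO controls; the thermal stability score was transformed to a z-score; mean of n = 3 experiments.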
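Note: each temperature applied for 3 min, abundance score taken as mean log2 fold change at the two lowest temperatures, z-score obtained by mean subtraction and division by SD.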

Chain of UniProt Q14126 (Q14126 whole entry): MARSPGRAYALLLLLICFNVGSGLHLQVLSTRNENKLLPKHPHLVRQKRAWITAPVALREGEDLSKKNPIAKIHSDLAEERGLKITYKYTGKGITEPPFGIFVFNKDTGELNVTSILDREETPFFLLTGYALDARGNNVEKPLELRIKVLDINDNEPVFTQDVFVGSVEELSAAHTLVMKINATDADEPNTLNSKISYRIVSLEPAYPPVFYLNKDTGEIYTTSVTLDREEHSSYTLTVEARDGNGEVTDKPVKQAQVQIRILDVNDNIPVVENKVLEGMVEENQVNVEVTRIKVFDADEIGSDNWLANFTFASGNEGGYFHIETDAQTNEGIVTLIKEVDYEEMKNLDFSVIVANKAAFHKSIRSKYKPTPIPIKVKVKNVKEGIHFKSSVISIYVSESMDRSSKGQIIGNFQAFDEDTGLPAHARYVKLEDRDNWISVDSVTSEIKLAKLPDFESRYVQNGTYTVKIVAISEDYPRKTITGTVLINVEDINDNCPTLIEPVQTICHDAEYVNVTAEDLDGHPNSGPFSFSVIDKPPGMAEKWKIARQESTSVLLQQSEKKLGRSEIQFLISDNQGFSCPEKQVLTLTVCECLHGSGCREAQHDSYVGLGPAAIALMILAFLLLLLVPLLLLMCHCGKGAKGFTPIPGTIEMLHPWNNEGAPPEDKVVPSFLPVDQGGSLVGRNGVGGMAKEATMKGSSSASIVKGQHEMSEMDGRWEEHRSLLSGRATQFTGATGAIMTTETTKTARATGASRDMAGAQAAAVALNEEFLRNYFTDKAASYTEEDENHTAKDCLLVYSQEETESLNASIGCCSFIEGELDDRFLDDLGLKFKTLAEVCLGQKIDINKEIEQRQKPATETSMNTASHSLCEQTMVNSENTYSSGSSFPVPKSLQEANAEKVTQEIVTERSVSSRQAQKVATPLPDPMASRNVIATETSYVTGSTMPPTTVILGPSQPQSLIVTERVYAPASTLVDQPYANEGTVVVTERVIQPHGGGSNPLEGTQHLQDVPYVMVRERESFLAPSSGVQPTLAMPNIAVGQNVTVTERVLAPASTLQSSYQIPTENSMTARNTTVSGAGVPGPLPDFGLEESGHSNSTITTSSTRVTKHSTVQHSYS
Chain of UniProt P60983 (P60983 whole entry): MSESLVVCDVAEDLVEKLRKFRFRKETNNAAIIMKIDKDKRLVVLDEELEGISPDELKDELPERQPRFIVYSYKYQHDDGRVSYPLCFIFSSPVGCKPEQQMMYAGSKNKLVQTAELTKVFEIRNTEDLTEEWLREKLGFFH
Chain of UniProt Q9H079 (Q9H079 whole entry): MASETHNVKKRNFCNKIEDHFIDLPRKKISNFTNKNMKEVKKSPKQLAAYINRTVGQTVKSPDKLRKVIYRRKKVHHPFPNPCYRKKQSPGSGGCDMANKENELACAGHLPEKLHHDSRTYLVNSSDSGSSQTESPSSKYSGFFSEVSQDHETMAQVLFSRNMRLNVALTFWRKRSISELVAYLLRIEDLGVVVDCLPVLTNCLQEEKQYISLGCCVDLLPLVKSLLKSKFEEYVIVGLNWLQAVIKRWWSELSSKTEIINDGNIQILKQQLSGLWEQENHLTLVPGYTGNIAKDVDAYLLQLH
Chain of UniProt Q8NBA8 (Q8NBA8 whole entry): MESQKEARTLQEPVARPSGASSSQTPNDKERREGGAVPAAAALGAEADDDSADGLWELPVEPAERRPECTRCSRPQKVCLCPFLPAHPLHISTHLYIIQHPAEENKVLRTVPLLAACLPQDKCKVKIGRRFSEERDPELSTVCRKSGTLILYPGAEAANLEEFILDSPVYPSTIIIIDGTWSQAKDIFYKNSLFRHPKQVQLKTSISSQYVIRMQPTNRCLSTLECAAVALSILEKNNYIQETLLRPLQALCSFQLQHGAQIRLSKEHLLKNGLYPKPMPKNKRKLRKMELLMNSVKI
Chain of UniProt Q9HA64 (Q9HA64 whole entry): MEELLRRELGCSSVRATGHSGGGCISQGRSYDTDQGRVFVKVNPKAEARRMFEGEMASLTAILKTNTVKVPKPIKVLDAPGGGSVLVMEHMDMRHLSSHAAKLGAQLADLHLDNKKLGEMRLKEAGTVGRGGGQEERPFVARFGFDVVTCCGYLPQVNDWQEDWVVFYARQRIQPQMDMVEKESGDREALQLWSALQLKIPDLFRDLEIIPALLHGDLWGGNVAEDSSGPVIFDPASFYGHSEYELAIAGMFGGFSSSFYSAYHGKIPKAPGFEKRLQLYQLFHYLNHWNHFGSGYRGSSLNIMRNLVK
Chain of UniProt P61764 (P61764 whole entry): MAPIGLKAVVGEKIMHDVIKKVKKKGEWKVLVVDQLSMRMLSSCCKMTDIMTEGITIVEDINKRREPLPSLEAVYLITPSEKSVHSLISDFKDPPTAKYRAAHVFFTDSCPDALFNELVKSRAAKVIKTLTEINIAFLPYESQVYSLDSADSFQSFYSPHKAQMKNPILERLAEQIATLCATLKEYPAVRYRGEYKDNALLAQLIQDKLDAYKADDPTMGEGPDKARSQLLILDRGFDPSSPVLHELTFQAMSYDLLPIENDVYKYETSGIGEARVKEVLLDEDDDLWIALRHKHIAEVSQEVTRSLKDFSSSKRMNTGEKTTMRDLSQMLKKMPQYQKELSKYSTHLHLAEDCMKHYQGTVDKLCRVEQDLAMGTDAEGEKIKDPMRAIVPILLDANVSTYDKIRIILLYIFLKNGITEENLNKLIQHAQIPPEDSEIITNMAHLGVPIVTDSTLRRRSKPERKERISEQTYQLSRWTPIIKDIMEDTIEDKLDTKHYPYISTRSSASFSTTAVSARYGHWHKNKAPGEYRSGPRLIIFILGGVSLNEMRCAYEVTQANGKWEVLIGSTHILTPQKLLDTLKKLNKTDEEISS
Chain of UniProt Q9Y3B4 (Q9Y3B4 whole entry): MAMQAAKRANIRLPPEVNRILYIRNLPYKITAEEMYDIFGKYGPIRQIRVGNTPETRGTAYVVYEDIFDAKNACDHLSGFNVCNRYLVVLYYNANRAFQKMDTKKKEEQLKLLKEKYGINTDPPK
Chain of UniProt P54886 (P54886 whole entry): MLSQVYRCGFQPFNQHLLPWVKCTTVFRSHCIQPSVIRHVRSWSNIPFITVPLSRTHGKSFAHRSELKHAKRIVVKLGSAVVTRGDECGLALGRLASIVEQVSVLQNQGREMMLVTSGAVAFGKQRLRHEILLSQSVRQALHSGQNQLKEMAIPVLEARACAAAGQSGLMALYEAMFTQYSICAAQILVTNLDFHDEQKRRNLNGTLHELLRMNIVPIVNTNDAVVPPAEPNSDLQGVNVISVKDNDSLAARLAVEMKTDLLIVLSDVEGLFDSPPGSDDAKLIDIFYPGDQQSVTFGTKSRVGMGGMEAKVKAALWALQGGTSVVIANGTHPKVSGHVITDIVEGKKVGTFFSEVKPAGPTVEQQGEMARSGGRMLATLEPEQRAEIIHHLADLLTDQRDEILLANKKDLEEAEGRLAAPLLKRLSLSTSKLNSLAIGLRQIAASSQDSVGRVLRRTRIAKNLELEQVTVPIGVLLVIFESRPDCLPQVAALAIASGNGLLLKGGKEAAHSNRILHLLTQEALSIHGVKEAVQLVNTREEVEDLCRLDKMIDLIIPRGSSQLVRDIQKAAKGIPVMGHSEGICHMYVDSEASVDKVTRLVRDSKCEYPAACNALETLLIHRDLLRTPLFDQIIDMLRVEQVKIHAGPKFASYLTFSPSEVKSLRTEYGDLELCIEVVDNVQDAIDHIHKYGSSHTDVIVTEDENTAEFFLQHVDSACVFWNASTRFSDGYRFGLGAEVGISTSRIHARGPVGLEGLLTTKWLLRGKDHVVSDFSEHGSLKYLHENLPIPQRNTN
Chain of UniProt Q5TA50 (Q5TA50 whole entry): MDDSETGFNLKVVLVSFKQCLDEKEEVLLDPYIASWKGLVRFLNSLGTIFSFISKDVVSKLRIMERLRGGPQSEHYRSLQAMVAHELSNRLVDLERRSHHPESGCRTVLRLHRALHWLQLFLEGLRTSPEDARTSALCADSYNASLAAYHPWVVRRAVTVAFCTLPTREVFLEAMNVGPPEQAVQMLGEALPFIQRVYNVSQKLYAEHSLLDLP
Chain of UniProt P50213 (P50213 whole entry): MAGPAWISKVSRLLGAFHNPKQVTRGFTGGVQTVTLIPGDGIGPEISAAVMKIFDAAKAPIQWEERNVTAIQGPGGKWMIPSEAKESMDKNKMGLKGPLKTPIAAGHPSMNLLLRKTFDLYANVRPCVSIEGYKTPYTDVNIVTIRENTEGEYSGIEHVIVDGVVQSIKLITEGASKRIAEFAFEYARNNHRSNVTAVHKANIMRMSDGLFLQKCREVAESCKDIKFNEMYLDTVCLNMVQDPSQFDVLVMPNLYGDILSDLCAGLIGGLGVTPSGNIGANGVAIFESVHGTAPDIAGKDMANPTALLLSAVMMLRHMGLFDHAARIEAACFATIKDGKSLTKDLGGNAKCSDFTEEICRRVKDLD
Chain of UniProt Q9UBS8 (Q9UBS8 whole entry): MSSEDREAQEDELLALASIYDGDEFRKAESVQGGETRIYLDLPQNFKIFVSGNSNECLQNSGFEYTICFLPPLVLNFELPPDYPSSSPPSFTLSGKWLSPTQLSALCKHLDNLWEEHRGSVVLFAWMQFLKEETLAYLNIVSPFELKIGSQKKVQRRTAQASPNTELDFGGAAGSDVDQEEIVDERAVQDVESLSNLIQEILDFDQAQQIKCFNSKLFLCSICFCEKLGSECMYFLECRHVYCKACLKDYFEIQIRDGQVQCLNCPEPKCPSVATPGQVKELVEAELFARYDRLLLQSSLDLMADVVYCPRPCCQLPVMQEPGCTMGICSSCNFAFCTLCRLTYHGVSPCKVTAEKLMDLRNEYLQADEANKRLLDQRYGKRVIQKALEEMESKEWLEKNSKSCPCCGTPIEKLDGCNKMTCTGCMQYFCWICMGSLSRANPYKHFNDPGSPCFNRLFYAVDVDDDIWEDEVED
Chain of UniProt Q9Y421 (Q9Y421 whole entry): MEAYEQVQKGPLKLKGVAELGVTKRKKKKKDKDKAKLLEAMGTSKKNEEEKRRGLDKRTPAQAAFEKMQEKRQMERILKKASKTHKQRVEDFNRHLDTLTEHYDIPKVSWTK

Target	thermal stability z-score
NUP214 (UniProt P35658)	0.815
CNOT10 (UniProt Q9H9A5)	0.677
TMEM160 (UniProt Q9NX00)	0.0213
EIF3J (UniProt O75822)	0.444
KRR1 (UniProt Q13601)	-0.512
TRIM24 (UniProt O15164)	-0.334
DNAJA3 (UniProt Q96EY1)	0.258
CECR5 (UniProt Q9BXW7)	0.99
FN3KRP (UniProt Q9HA64)	0.155
PYGL (UniProt P06737)	-0.513
RDH14 (UniProt Q9HBH5)	1.53
KATNBL1 (UniProt Q9H079)	0.427
MYO5A (UniProt Q9Y4I1)	0.118
PTPN6 (UniProt P29350)	-0.0221
TCEB2 (UniProt Q15370)	0.154
SF3B6 (UniProt Q9Y3B4)	-0.667
LGALS3BP (UniProt Q08380)	0.946
PRPSAP1 (UniProt Q14558)	-0.858
ALDH18A1 (UniProt P54886)	-1.34
NCK1 (UniProt P16333)	-0.0139
TEAD1 (UniProt P28347)	-0.00363
RPL10A (UniProt P62906)	0.27
NCOA3 (UniProt Q9Y6Q9)	-0.26
MAP1LC3B2|MAP1LC3B	0.485

Target	thermal stability z-score
GPBP1 (UniProt Q86WP2)	-0.111
DNM1L (UniProt O00429)	0.237
DSG2 (UniProt Q14126)	0.99
NCKIPSD (UniProt Q9NZQ3)	0.255
ARFIP2 (UniProt P53365)	0.108
STX6 (UniProt O43752)	-0.486
ARL13B (UniProt Q3SXY8)	-1.37
SRI (UniProt P30626)	0.177
PSMG2 (UniProt Q969U7)	2.01
DTWD2 (UniProt Q8NBA8)	0.0974
FRA10AC1 (UniProt Q70Z53)	0.108
NFU1 (UniProt Q9UMS0)	0.227
RAB3D (UniProt O95716)	0.692
SPC25 (UniProt Q9HBM1)	0.191
STXBP1 (UniProt P61764)	0.156
CHCHD4 (UniProt Q8N4Q1)	-0.236
ETHE1 (UniProt O95571)	0.0234
PSMD3 (UniProt O43242)	0.115
FAM107B (UniProt Q9H098)	0.327
GMFB (UniProt P60983)	-0.675
AIMP2 (UniProt Q13155)	0.702
POFUT2 (UniProt Q9Y2G5)	-0.177
RBKS (UniProt Q9H477)	0.335
KCTD10 (UniProt Q9H3F6)	1.06

Target	thermal stability z-score
FAM32A (UniProt Q9Y421)	0.375
TMED4 (UniProt Q7Z7H5)	0.0343
KRI1 (UniProt Q8N9T8)	-0.376
RNF14 (UniProt Q9UBS8)	0.158
MT (UniProt Q8IVS2)	-0.404
NPM1 (UniProt P06748)	-1.07
TNS4 (UniProt Q8IZW8)	-0.0861
PTPRK (UniProt Q15262)	0.129
ETFB (UniProt P38117)	-1.2
ACAA1 (UniProt P09110)	0.919
CBR4 (UniProt Q8N4T8)	0.168
CPTP (UniProt Q5TA50)	1.5
POLE3 (UniProt Q9NRF9)	0.375
SVIL (UniProt O95425)	0.279
IDH3A (UniProt P50213)	-1.11
PUS1 (UniProt Q9Y606)	0.257
ANXA8L1 (UniProt Q5VT79)	0.00565
LSM12 (UniProt Q3MHD2)	-0.27
AAR2 (UniProt Q9Y312)	-0.912
YWHAB (UniProt P31946)	0.281
CSTF2 (UniProt P33240)	0.756
EIF4G1 (UniProt Q04637)	-0.0263
WIPI2 (UniProt Q9Y4P8)	-0.0998

compound: NC(=O)CCCCC1CCSS1 [lipoamide]; assay: as above; conditions: HeLa; lipoamide concentration 100 µM; arsenate co-treatment: 1 mM arsenate 1 h
Protocol: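 Cellular thermal proteome profiling in HeLa cells. Cells were treated with 100 µM lipoamide for 1 h, with or without 1 mM arsenate for a further 1 h, then heated to ten temperatures (37-66.3 °C), and soluble protein was quantified by TMT mass spectrometry relative to 0.1% DMSO controls. The thermal stability score (sum of log2 fold changes minus the abundance score) was transformed to a z-score; mean of n = 3 experiments.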

Target	thermal stability z-score
NUP214 (UniProt P35658)	-0.0103
CNOT10 (UniProt Q9H9A5)	-0.532
TMEM160 (UniProt Q9NX00)	-0.0998
EIF3J (UniProt O75822)	0.395
KRR1 (UniProt Q13601)	-0.00732
TRIM24 (UniProt O15164)	0.0835
DNAJA3 (UniProt Q96EY1)	-1.12
CECR5 (UniProt Q9BXW7)	-0.169
FN3KRP (UniProt Q9HA64)	-0.401
PYGL (UniProt P06737)	0.968
RDH14 (UniProt Q9HBH5)	1.25
KATNBL1 (UniProt Q9H079)	0.226
MYO5A (UniProt Q9Y4I1)	0.351
PTPN6 (UniProt P29350)	-0.0229
TCEB2 (UniProt Q15370)	0.764
SF3B6 (UniProt Q9Y3B4)	-0.787
LGALS3BP (UniProt Q08380)	-2.58
PRPSAP1 (UniProt Q14558)	0.0495
ALDH18A1 (UniProt P54886)	-0.0576
NCK1 (UniProt P16333)	-0.705
TEAD1 (UniProt P28347)	0.133
RPL10A (UniProt P62906)	0.849
NCOA3 (UniProt Q9Y6Q9)	-0.0145
MAP1LC3B2|MAP1LC3B	0.0751

Target	thermal stability z-score
GPBP1 (UniProt Q86WP2)	-0.514
DNM1L (UniProt O00429)	-0.508
DSG2 (UniProt Q14126)	-0.108
NCKIPSD (UniProt Q9NZQ3)	0.127
ARFIP2 (UniProt P53365)	-0.0772
STX6 (UniProt O43752)	-0.996
ARL13B (UniProt Q3SXY8)	-0.415
SRI (UniProt P30626)	1.28
PSMG2 (UniProt Q969U7)	0.926
DTWD2 (UniProt Q8NBA8)	-0.283
FRA10AC1 (UniProt Q70Z53)	0.081
NFU1 (UniProt Q9UMS0)	0.559
RAB3D (UniProt O95716)	0.635
SPC25 (UniProt Q9HBM1)	0.989
STXBP1 (UniProt P61764)	-0.206
CHCHD4 (UniProt Q8N4Q1)	0.0185
ETHE1 (UniProt O95571)	0.217
PSMD3 (UniProt O43242)	0.084
FAM107B (UniProt Q9H098)	-0.0721
GMFB (UniProt P60983)	0.0996
AIMP2 (UniProt Q13155)	-0.616
POFUT2 (UniProt Q9Y2G5)	-1.74
RBKS (UniProt Q9H477)	-0.0153
KCTD10 (UniProt Q9H3F6)	0.997

Target	thermal stability z-score
FAM32A (UniProt Q9Y421)	0.832
TMED4 (UniProt Q7Z7H5)	-0.192
KRI1 (UniProt Q8N9T8)	0.198
RNF14 (UniProt Q9UBS8)	-1.18
MT (UniProt Q8IVS2)	-0.281
NPM1 (UniProt P06748)	1.35
TNS4 (UniProt Q8IZW8)	-0.0278
PTPRK (UniProt Q15262)	-1.17
ETFB (UniProt P38117)	-0.321
ACAA1 (UniProt P09110)	-0.181
CBR4 (UniProt Q8N4T8)	-0.276
CPTP (UniProt Q5TA50)	2.01
POLE3 (UniProt Q9NRF9)	-0.405
SVIL (UniProt O95425)	0.00545
IDH3A (UniProt P50213)	-0.0281
PUS1 (UniProt Q9Y606)	-0.761
ANXA8L1 (UniProt Q5VT79)	-0.11
LSM12 (UniProt Q3MHD2)	-0.205
AAR2 (UniProt Q9Y312)	-0.223
YWHAB (UniProt P31946)	0.364
CSTF2 (UniProt P33240)	1.09
EIF4G1 (UniProt Q04637)	-0.164
WIPI2 (UniProt Q9Y4P8)	0.0343

same assay, conditions: HeLa; lipoamide concentration 100 µM; arsenate co-treatment: none

Target	thermal stability z-score
NUP214 (UniProt P35658)	-0.132
CNOT10 (UniProt Q9H9A5)	0.228
TMEM160 (UniProt Q9NX00)	0.628
EIF3J (UniProt O75822)	-0.118
KRR1 (UniProt Q13601)	0.0711
TRIM24 (UniProt O15164)	0.184
DNAJA3 (UniProt Q96EY1)	-0.564
CECR5 (UniProt Q9BXW7)	0.0959
FN3KRP (UniProt Q9HA64)	0.365
PYGL (UniProt P06737)	0.345
RDH14 (UniProt Q9HBH5)	0.852
KATNBL1 (UniProt Q9H079)	0.62
MYO5A (UniProt Q9Y4I1)	0.43
PTPN6 (UniProt P29350)	0.0958
TCEB2 (UniProt Q15370)	0.455
SF3B6 (UniProt Q9Y3B4)	-0.165
LGALS3BP (UniProt Q08380)	-2.13
PRPSAP1 (UniProt Q14558)	-0.517
ALDH18A1 (UniProt P54886)	0.0663
NCK1 (UniProt P16333)	-0.905
TEAD1 (UniProt P28347)	0.196
RPL10A (UniProt P62906)	0.534
NCOA3 (UniProt Q9Y6Q9)	0.0505
MAP1LC3B2|MAP1LC3B	0.888

Target	thermal stability z-score
GPBP1 (UniProt Q86WP2)	-0.441
DNM1L (UniProt O00429)	0.234
DSG2 (UniProt Q14126)	0.19
NCKIPSD (UniProt Q9NZQ3)	0.0916
ARFIP2 (UniProt P53365)	-0.0355
STX6 (UniProt O43752)	-0.712
ARL13B (UniProt Q3SXY8)	-0.29
SRI (UniProt P30626)	0.78
PSMG2 (UniProt Q969U7)	0.248
DTWD2 (UniProt Q8NBA8)	0.0338
FRA10AC1 (UniProt Q70Z53)	0.0654
NFU1 (UniProt Q9UMS0)	0.402
RAB3D (UniProt O95716)	1.07
SPC25 (UniProt Q9HBM1)	-0.483
STXBP1 (UniProt P61764)	0.0929
CHCHD4 (UniProt Q8N4Q1)	0.497
ETHE1 (UniProt O95571)	-0.107
PSMD3 (UniProt O43242)	0.0492
FAM107B (UniProt Q9H098)	0.629
GMFB (UniProt P60983)	0.368
AIMP2 (UniProt Q13155)	-0.263
POFUT2 (UniProt Q9Y2G5)	-2.4
RBKS (UniProt Q9H477)	-0.521
KCTD10 (UniProt Q9H3F6)	0.63

Target	thermal stability z-score
FAM32A (UniProt Q9Y421)	0.827
TMED4 (UniProt Q7Z7H5)	-0.249
KRI1 (UniProt Q8N9T8)	-0.118
RNF14 (UniProt Q9UBS8)	0.11
MT (UniProt Q8IVS2)	-0.555
NPM1 (UniProt P06748)	0.674
TNS4 (UniProt Q8IZW8)	-0.078
PTPRK (UniProt Q15262)	-0.25
ETFB (UniProt P38117)	0.54
ACAA1 (UniProt P09110)	0.335
CBR4 (UniProt Q8N4T8)	0.0911
CPTP (UniProt Q5TA50)	0.706
POLE3 (UniProt Q9NRF9)	-0.285
SVIL (UniProt O95425)	0.00211
IDH3A (UniProt P50213)	-0.439
PUS1 (UniProt Q9Y606)	-0.18
ANXA8L1 (UniProt Q5VT79)	-0.0845
LSM12 (UniProt Q3MHD2)	0.447
AAR2 (UniProt Q9Y312)	0.408
YWHAB (UniProt P31946)	0.584
CSTF2 (UniProt P33240)	0.979
EIF4G1 (UniProt Q04637)	-0.0562
WIPI2 (UniProt Q9Y4P8)	0.463
